Data: patent publication US9371387B2 (GACHON UNIVERSITY OF INDUSTRY-ACADEMIC COOPERATION …, priority 2011, dated 2016)

System: human macrophage cells
Test: AGE-albumin synthesis and release by macrophages under oxidative stress (ELISA)
Assay type: cell-based
Settings: FIG. 3
Procedure: For the in vitro study, immortal human macrophage cells were employed. The macrophages were grown in DMEM (Dulbecco's modified Eagle's medium, Gibco)-high glucose supplemented with 10% heat-inactivated FBS (fetal bovine serum, Gibco) and […] gentamicin (Sigma-Aldrich) at 37° C. in a 5% CO2 atmosphere.
After incubation at 4° C. for 12 hrs, the plates were washed three times with 1×PBS to remove the antibody which remained non-immobilized to the well, and then was filled with 5% BSA. […] After the plates were washed three time with 1×PBS to remove the antigens which remained unreacted, an anti-AGE antibody (Abcam) was applied at a concentration of 1 ug/ml to each well and incubated at room temperature for 2 hrs. The antibody remaining unreacted was washed off with 1×PBS. Each well was incubated with 1 ug/ml peroxidase-conjugated secondary antibody (Vector laboratory) at room temperature for 2 hrs and washed with 1×PBS to remove the secondary antibodies which remained unreacted. Color was developed with TMB (3,3′,5,5′-tetramethylbenzidine) at room temperature for 20 min. When the TMP buffer turned dark blue, the color development was stopped with 2NH2SO4. Absorbance at 450 nm was read on an ELISA reader (VERSA Max, Molecular Devices) (FIG. 1).

| SMILES | amount of AGE-albumin (macrophages exposed to hydrogen peroxide) | expression level of AGE-albumin (macrophages, addition of antioxidant, irrespective of hypoxia (H2O2)) |
| --- | --- | --- |
| OO [hydrogen peroxide] | increased in a concentration-dependent manner | – |
| O=C1O[C@H]([C@@H](O)CO)C(O)=C1O [ascorbic acid] | – | drastically reduced |
